From publication PMC10044640, “Antimicrobial Peptides Designed against the Ω-Loop of Class A β-Lactamases to Potentiate the Efficacy of β-Lactam Antibiotics” (Antibiotics, 2023)
Read-outs that look alike come from different tables or passages of the source.

Assays:
[1] = tested on: E. coli CS109; experiment: HT-SPOTi MIC of β-lactams with or without peptides; type: cell-based, Escherichia coli; conditions: for MIC Value Antibiotics, β-lactam alone: E. coli CS109, no peptide, HT-SPOTi agar, ~10^3 CFU/well, triplicate
[2] = tested on: K. pneumoniae; experiment: HT-SPOTi MIC of β-lactams with or without peptides; type: cell-based, Klebsiella pneumoniae; conditions: for MIC Value Antibiotics, β-lactam alone: K. pneumoniae, no peptide, triplicate
[3] = tested on: M. smegmatis MC2 155; experiment: HT-SPOTi MIC of β-lactams with or without peptides; type: cell-based, Mycobacterium smegmatis; conditions: no peptide, triplicate
[4] = tested on: E. coli CS109 + pBAD-TEM1; type: cell-based, Escherichia coli; conditions: E. coli CS109 + pBAD-TEM1 (arabinose-induced), no peptide; HT-SPOTi
[5] = tested on: E. coli CS109 + pBAD-SHV-14; type: cell-based, Escherichia coli; conditions: E. coli CS109 + pBAD-SHV-14 (arabinose-induced), no peptide; HT-SPOTi
[6] = tested on: E. coli CS109; experiment: Broth microdilution MIC; type: cell-based, Escherichia coli; conditions: E. coli CS109, no peptide; broth microdilution (CLSI), MHB, ~10^5 cells/well, OD600; triplicate
[7] = tested on: E. coli CS109 + pBAD-TEM1; type: cell-based, Escherichia coli; conditions: CS109 + pBAD-TEM1, no peptide; broth microdilution, MHB, ~10^5 cells/well, OD600
[8] = tested on: E. coli CS109 + pBAD-SHV-14; type: cell-based, Escherichia coli
[9] = biological target: T1, TEM-1 (Escherichia coli, UniProt P62593); experiment: Kinetics of β-lactam hydrolysis with or without peptides; type: biochemical
T1 construct: The full-length constructs (blaSHV-14 and blaTEM-1) were cloned and expressed in pBAD18-Cam (Cam^R) vector; 6xHis (N); made in house; host or cells: E. coli BL21 (DE3) pLysS, pET28a(+)
T1 sequence (P62593 24-286 limits assumed): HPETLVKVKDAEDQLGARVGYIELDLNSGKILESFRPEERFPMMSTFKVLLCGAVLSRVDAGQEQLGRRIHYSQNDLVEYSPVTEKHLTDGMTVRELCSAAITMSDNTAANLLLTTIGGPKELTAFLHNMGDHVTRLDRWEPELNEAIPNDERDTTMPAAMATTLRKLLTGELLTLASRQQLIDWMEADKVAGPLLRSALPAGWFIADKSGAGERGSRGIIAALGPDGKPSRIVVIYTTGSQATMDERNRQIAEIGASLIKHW
Method: (§1) The N-terminal 6X histidine-tagged proteins (SHV-14 and TEM-1) were expressed from the respective plasmid constructs already available in the laboratory and were purified by Ni-NTA affinity chromatography using an AKTA prime plus (GE Healthcare, Piscataway, NJ, USA) as described previously. Nitrocefin hydrolysis was used to validate the β-lactamase activity of both proteins.
(§2) Assessment of enzyme activities was carried out by calculating the kinetic parameters [Michaelis–Menten constants (Km and Vmax), turn-over number (kcat), and catalytic efficiency (kcat/Km)] with various β-lactam substrates in the presence of the peptides as described previously. The hydrolysis reaction was carried out at 25 °C in 10 mM Tris-HCl, 300 mM NaCl (pH 7.5) buffer supplemented with 1 μg mL^−1 bovine serum albumin for protein stability. The enzyme concentrations (0.46 μM: SHV-14 and 0.42 μM: TEM-1) were taken to determine the initial rate constants at varying substrate concentrations (20–500 μM). The values were calculated using the online curve-fitting tool (https://www.mycurvefit.com, MyAssays Ltd., Brighton, UK, accessed on 25 May 2022).

[10] = tested on: SHV-14; experiment: as above; type: biochemical, Klebsiella pneumoniae; conditions: SHV-14 0.46 μM, no peptide, 25 °C; for Km: 10 mM Tris-HCl, 300 mM NaCl pH 7.5, 1 μg/mL BSA, substrate 20–500 μM, read-out: Km, β-lactam substrate alone; for kcat, β-lactam substrate alone: pH 7.5
Method: as §1, §2

[11] = tested on: M. tuberculosis H37Rv; experiment: HT-SPOTi MIC of ampicillin with or without peptides; type: cell-based; conditions: Mycobacterium tuberculosis, MTB H37Rv, control row of Table S2, read-out: MIC value, control drug
[12] = tested on: Gram-negative strains (E. coli CS109, K. pneumoniae); experiment: HT-SPOTi, cephalosporins with peptides; type: cell-based, Escherichia coli; Klebsiella pneumoniae; conditions: strain not given
Method: HT-SPOTi (high-throughput spot culture growth inhibition) assay was used to evaluate the whole cell phenotypic effect of peptides against a selection of Gram-negative and acid-fast bacterial strains in the presence of β-lactam antibiotics as previously described. The distribution of the molten agar media into the 96 wells was achieved using the Multidrop Combi microplate dispenser (Thermo-Fisher Scientific). Plates were left for 5 min for the agar to set, and a diluted inoculum of bacteria was applied (2 µL of ∼10^3 CFU) into each well by either the use of a multi-channel pipettor or by using the Multidrop Combi. DMSO was taken as no antibiotic control and kanamycin as non-β-lactam drug control. Unless otherwise specified, all the experiments were performed in triplicate.
To check the inhibitory activity of peptides and comprehend particular structure–activity relationships, HT-SPOTi assay was performed. The whole-cell phenotypic effect of the 10 pentapeptides was ascertained in combination with β-lactam antibiotics in E. coli CS109 and K. pneumoniae.

[13] = tested on: CC1(C)S[C@@H]2[C@H](NC(=O)[C@H](N)c3ccc(O)cc3)C(=O)N2[C@H]1C(=O)O; experiment: Kinetics of β-lactam hydrolysis with or without peptides; type: biochemical, Escherichia coli; conditions: other: TEM-1 0.42 μM, no peptide, 25 °C, 10 mM Tris-HCl, 300 mM NaCl pH 7.5, 1 μg/mL BSA, substrate 20–500 μM
Method: as §1, §2

[14] = tested on: CCN1CCN(C(=O)N[C@@H](C(=O)N[C@@H]2C(=O)N3[C@@H]2SC(C)(C)[C@@H]3C(=O)O)c2ccccc2)C(=O)C1=O; experiment: as above; type: biochemical, Escherichia coli; conditions: other: TEM-1 0.42 μM, no peptide, 25 °C, 10 mM Tris-HCl, 300 mM NaCl pH 7.5, 1 μg/mL BSA, substrate 20–500 μM
Method: as §1, §2

[15] = CS109 + pBAD-SHV-14, no peptide, broth microdilution, MHB, ~10^5 cells/well, OD600
[16] = TEM-1 0.42 μM, no peptide; 25 °C, pH 7.5

Compound | MIC Value Antibiotics, β-lactam alone [1] [µg/mL] | MIC Value Antibiotics, β-lactam alone [2] [µg/mL] | MIC Value of Antibiotics, β-lactam alone [4] [µg/mL] | MIC Value of Antibiotics, β-lactam alone [6] [µg/mL] | Km [10] [µM] | kcat, β-lactam substrate alone [10] [s⁻¹] | levels of resistance to the cephalosporin with peptides [12] | further results
CC1(C)S[C@@H]2[C@H](NC(=O)[C@H](N)c3ccccc3)C(=O)N2[C@H]1C(=O)O [Amp, Ampicillin] | 4 | 32 | 16 | 8 | 187 ± 12.2 | 644.95 ± 10.97 | – | MIC Value Antibiotics, β-lactam alone [3]: 4 µg/mL; MIC Value of Antibiotics, β-lactam alone [5]: 32 µg/mL; MIC Value of Antibiotics, β-lactam alone [7]: 32 µg/mL; MIC Value of Antibiotics, β-lactam alone [8, 15]: 64 µg/mL; kcat, β-lactam substrate alone [9, 16]: 290 ± 85.55 s⁻¹; Km ([9]; read-out: Km, β-lactam substrate alone; TEM-1 0.42 μM, no peptide; 25 °C, 10 mM Tris-HCl, 300 mM NaCl pH 7.5, 1 μg/mL BSA; substrate 20–500 μM): 66 ± 12.2 µM
CC1(C)S[C@@H]2[C@H](NC(=O)[C@H](N)c3ccc(O)cc3)C(=O)N2[C@H]1C(=O)O [Amx, Amoxicillin] | 8 | 64 | 32 | 16 | 112 ± 12.2 | 416.95 ± 5.02 | – | MIC Value Antibiotics, β-lactam alone [3]: 2 µg/mL; MIC Value of Antibiotics, β-lactam alone [7]: 64 µg/mL
NNC(=O)c1ccncc1 [Isoniazid] | – | – | – | – | – | – | – | MIC [11]: 2 µg/mL
NC[C@H]1O[C@H](O[C@H]2[C@H](O)[C@@H](O[C@H]3O[C@H](CO)[C@@H](O)[C@H](N)[C@H]3O)[C@H](N)C[C@@H]2N)[C@H](O)[C@@H](O)[C@@H]1O [Kanamycin] | – | – | – | – | – | – | – | MIC Value, non-β-lactam drug control ([1]; Table 4 control row, construct not given, one value under each column Pen, Amp, Amx, Pip, HT-SPOTi): 64 µg/mL; MIC Value, non-β-lactam drug control ([2]; Table 3b control row, one value printed under each column Pen, Amp, Amx, Pip): 64 µg/mL
CCN1CCN(C(=O)N[C@@H](C(=O)N[C@@H]2C(=O)N3[C@@H]2SC(C)(C)[C@@H]3C(=O)O)c2ccccc2)C(=O)C1=O [Pip, Piperacillin] | 16 | 64 | 64 | 16 | 98.7 ± 12.2 | 432.09 ± 5.97 | – | MIC Value Antibiotics, β-lactam alone [3]: >250 µg/mL; MIC Value of Antibiotics, β-lactam alone [5]: 64 µg/mL; MIC Value of Antibiotics, β-lactam alone [7]: 125 µg/mL; MIC Value of Antibiotics, β-lactam alone [8, 15]: 125 µg/mL
N[C@@H](C(=O)N[C@@H]1C(=O)N2C(C(=O)O)=C(Cl)CS[C@H]12)c1ccccc1 [cefaclor] | – | – | – | – | – | – | remained unaltered | –
CC1=C(C(=O)O)N2C(=O)[C@@H](NC(=O)[C@H](N)c3ccc(O)cc3)[C@H]2SC1 [cefadroxil] | – | – | – | – | – | – | remained unaltered | –
CO/N=C(\C(=O)N[C@@H]1C(=O)N2C(C(=O)[O-])=C(C[N+]3(C)CCCC3)CS[C@H]12)c1csc(N)n1 [cefepime] | – | – | – | – | – | – | remained unaltered | –
CCN1CCN(C(=O)N[C@@H](C(=O)N[C@@H]2C(=O)N3C(C(=O)O)=C(CSc4nnnn4C)CS[C@H]23)c2ccc(O)cc2)C(=O)C1=O [cefoperazone] | – | – | – | – | – | – | remained unaltered | –
CC(C)(O/N=C(\C(=O)N[C@@H]1C(=O)N2C(C(=O)[O-])=C(C[n+]3ccccc3)CS[C@H]12)c1csc(N)n1)C(=O)O [ceftazidime] | – | – | – | – | – | – | remained unaltered | –
Penicillin | 32 | 32 | 64 | 64 | 144 ± 4.43 | 586.95 ± 15.97 | – | MIC Value of Antibiotics, β-lactam alone [5]: 250 µg/mL; MIC Value of Antibiotics, β-lactam alone [8]: 500 µg/mL; Km ([9]; TEM-1 0.42 μM, no peptide; 25 °C, 10 mM Tris-HCl, 300 mM NaCl pH 7.5, 1 μg/mL BSA; substrate 20–500 μM; read-out: Km, β-lactam substrate alone): 67.2 ± 4.43 µM; kcat, β-lactam substrate alone [9, 16]: 386.95 ± 15.97 s⁻¹
TEM-1 (Escherichia coli) | – | – | – | – | – | – | – | Km [13]: 105.09 ± 12.16 µM; kcat [13]: 427 ± 21 s⁻¹; Km [14]: 136.32 ± 12.16 µM; kcat [14]: 331 ± 12.2 s⁻¹
